# Laboratory results as given in US11584756B2, “Heterocyclic compounds as BET inhibitors” (NUVATION BIO INC., priority 2019, dated 2023).
# What was measured:
# [1] = biological target: BRD4-2 (Homo sapiens (Human), UniProt O60885); experiment: Bromodomain and Extraterminal Domain (BET) binding assay, BRD4-2; details: histone H4 peptide (1-21) K5/8/12/16Ac-biotin ligand; 130 nM protein, 70 nM ligand
# Experimental: (§1) The bromodomain binding assays were performed by Reaction Biology Corp., Malvern, Pa., USA (www.reactionbiology.com). The BET binding assays were conducted in 384 well microplates in assay buffer (50 mM HEPES-HCl, pH 7.5, 100 mM NaCl, 1 mg/ml BSA, 0.05% CHAPS, and 0.5% DMSO) with compounds added as DMSO stocks at a single concentration or with 10-point dose response titrations. BET protein or assay buffer were delivered to the appropriate wells of the microplate. Test compound was then delivered by acoustic technology via a Labcyte Echo550 liquid handler. The microplate was centrifuged for 5 min and pre-incubated for 30 min at RT with gentle shaking. The ligand (histone H4 peptide (1-21) K5/8/12/16Ac-biotin) was delivered and the microplate was again centrifuged for 5 min and allowed to incubate for 30 min at RT with gentle shaking. Donor beads were then added in the absence of light and the microplate was centrifuged and gently shaken. After 5 min, acceptor beads were added in the absence of light and the microplate was centrifuged and gently shaken in the dark for 60 min. The microplate was read using a Perkin Elmer EnSpire Alpha plate reader (λ Ex/λ Em=680/520-620 nm). Percent inhibition was calculated relative to positive and negative controls on a per plate basis. For titration experiments, IC50 values were determined by fitting the percent inhibition versus compound concentration.
# [2] = biological target: BRD4-1 (Homo sapiens (Human), UniProt O60885); experiment: Bromodomain and Extraterminal Domain (BET) binding assay, BRD4-1; details: histone H4 peptide (1-21) K5/8/12/16Ac-biotin ligand; 20 nM protein, 20 nM ligand
# Experimental: as §1
# [3] = system: MV-4-11 human acute myeloid leukemia cell line; experiment: Cell viability assay in MV-4-11 cells (Cell Titer-Glo); assay type: cell-based; details: MV4-11, 72 hrs incubation
# Experimental: The effects of test compounds were studied in a cell viability assay in the MV-4-11 human acute myeloid leukemia cell line. The cells were harvested during the logarithmic growth period and counted. Cells were seeded at a count of 15000 cells per well/100 μl. After seeding, cells were incubated at 37° C. 5% CO2 for 1 hr. Cells were treated with test compounds at 8 concentrations within a desired concentration range (e.g. 5 nM-10 μM) for generation of dose response curves by preparing serial dilutions of the test compound in DMSO which were further diluted with culture medium and then added to each well. The plate was further incubated for another 72 hrs in a humidified incubator at 37° C. and 5% CO2. The assay was terminated by addition of Cell Titer-Glo reagent (Promega, Madison, Wis.) at ¼ the volume of total medium per well. Contents were mixed, the plate was incubated for 10 min at room temperature and luminescence was measured. Cell viability data were plotted using GraphPad Prism (GraphPad Software, Inc., San Diego, Calif.). In addition, a nonlinear regression model with a sigmoidal dose response and variable slope within GraphPad Prism was used to calculate the IC50 value of individual test compounds.
IC50 [1] [nM],IC50 [2] [nM],IC50 [3] [µM],SMILES
1.7,18,,"CCNC(=O)c1cc2c(=O)n(C)cc(-c3cc(C(C)(C)O)ccc3Oc3ccc(F)cc3F)c2s1 [Compound 159, 7-(2-(2,4-difluorophenoxy)-5-(2-hydroxypropan-2-yl)phenyl)-N-ethyl-5-methyl-4-oxo-4,5-dihydrothieno[3,2-c]pyridine-2-carboxamide]"
740,> 10000,,"C=C(C)c1ccc(Oc2c(C)cc(F)cc2C)c(-c2cn(C)c(=O)c3cc(C(=O)NCC)sc23)c1 [Compound 156, N-ethyl-7-(2-(4-fluoro-2,6-dimethylphenoxy)-5-(prop-1-en-2-yl)phenyl)-5-methyl-4-oxo-4,5-dihydrothieno[3,2-c]pyridine-2-carboxamide]"
145,> 10000,0.55,"CCS(=O)(=O)Nc1ccc(Oc2c(C)cc(F)cc2C)c(-c2cn(C)c(=O)c3sc(-c4nc5ccccc5[nH]4)cc23)c1 [Compound 157, N-(3-(2-(1H-benzo[d]imidazol-2-yl)-6-methyl-7-oxo-6,7-dihydrothieno[2,3-c]pyridin-4-yl)-4-(4-fluoro-2,6-dimethylphenoxy)phenyl)ethane sulfonamide]"
11,638,1.41,"Cn1cc(-c2cc(C(C)(C)O)ccc2Oc2ccc(F)cc2F)c2cc(C(=O)N3CCC(F)(F)CC3)sc2c1=O [Compound 22, 4-(2-(2,4-difluorophenoxy)-5-(2-hydroxypropan-2-yl)phenyl)-2-(4,4-difluoropiperidine-1-carbonyl)-6-methylthieno[2,3-c]pyridin-7(6H)-one]"
12.5,17,0.074,"Cc1nnc(-c2cc3c(-c4cc(C(C)(C)O)ccc4Oc4ccc(F)cc4F)cn(C)c(=O)c3s2)o1 [Compound 12, 4-(2-(2,4-difluorophenoxy)-5-(2-hydroxypropan-2-yl)phenyl)-6-methyl-2-(5-methyl-1,3,4-oxadiazol-2-yl)thieno[2,3-c]pyridin-7(6H)-one]"
3.2,9380,0.282,"Cc1cc(F)cc(C)c1Oc1ccc(C(C)(C)O)cc1-c1cn(C)c(=O)c2sc(C(=O)Nc3ccccc3)cc12 [Compound 151, 4-(2-(4-fluoro-2,6-dimethylphenoxy)-5-(2-hydroxypropan-2-yl)phenyl)-6-methyl-7-oxo-N-phenyl-6,7-dihydrothieno[2,3-c]pyridine-2-carboxamide]"
9,1490,0.536,"Cc1nnc(-c2cc3c(-c4cc(C(C)(C)O)ccc4Oc4c(C)cc(F)cc4C)cn(C)c(=O)c3s2)[nH]1 [Compound 152, 4-(2-(4-fluoro-2,6-dimethylphenoxy)-5-(2-hydroxypropan-2-yl)phenyl)-6-methyl-2-(5-methyl-4H-1,2,4-triazol-3-yl)thieno[2,3-c]pyridin-7(6H)-one]"
4070,> 10000,,"CCN(CC)C(=O)c1cc2c(-c3cc(C(C)(C)O)ccc3Oc3c(C)cc(F)cc3C)cn(C)c(=O)c2s1 [Compound 155, N,N-diethyl-4-(2-(4-fluoro-2,6-dimethylphenoxy)-5-(2-hydroxypropan-2-yl)phenyl)-6-methyl-7-oxo-6,7-dihydrothieno[2,3-c]pyridine-2-carboxamide]"
497,,2.48,"Cn1cc(-c2cc(C(C)(C)O)ccc2Oc2ccc(F)cc2F)c2cc(CN3CCCCC3)sc2c1=O [Compound 7, 4-(2-(2,4-difluorophenoxy)-5-(2-hydroxypropan-2-yl)phenyl)-6-methyl-2-(piperidin-1-ylmethyl)thieno[2,3-c]pyridin-7(6H)-one]"
7.3,15,,"CCS(=O)(=O)Nc1ccc(Oc2ccc(F)cc2F)c(-c2cn(C)c(=O)c3ccsc23)c1 [Compound 2.91, N-(4-(2,4-difluorophenoxy)-3-(5-methyl-4-oxo-4,5-dihydrothieno [3,2-c]pyridin-7-yl)phenyl)ethanesulfonamide]"
